Assay results: patent US11649255B2, “Indazoles as hematopoietic progenitor kinase 1 (HPK1) inhibitors and methods using same” (1st Biotherapeutics, Inc., priority 2020, dated 2023)
Read-outs that look alike come from different tables or passages of the source.

Key:
recombinant human HPK1 = recombinant human HPK1 (Homo sapiens (Human), UniProt Q92918); experiment: HPK1 kinase assay (ADP-Glo); format: biochemical; conditions: 25 μM ATP, MBP substrate
In short: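 Activity was read as ADP formed, detected by ADP-Glo luminescence after the reaction of 5 ng recombinant human HPK1 with MBP and ATP (stocks 0.5 μg/μl and 25 μM) for 40 min at 30 °C. Buffer was Tris pH 7.5 with MgCl2, BSA and DTT, with compound in 0.5% DMSO. IC50 came from inhibition curves.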

[1] = tested on: human peripheral blood pan T cells; experiment: IFNγ and IL-2 analysis of human peripheral pan T cells; format: cell-based; conditions: T-cell, CD3/CD28 bead stimulation, 100 nM Prostaglandin E2, 24 hr
Method: IFNγ and IL-2 Analysis of Human Peripheral Pan T Cells
Human peripheral blood pan T cells were purchased from STEMCELL™ Technologies Inc. Human peripheral blood pan T cells were thawed and suspended in DMEM media (10% FBS and 10 Penicillin/Streptomycin). 8×10^4 T cells were seeded in 96-well plate and incubated with various concentration of compounds and 100 nM Prostaglandin E2 for 1 hr. T cells were stimulated with Dynabeads Human T-Activator CD3/CD28 (Life Technologies) at a 1:3 cells: beads ratio. […] Data were analyzed with an MESO Quickplex SQ120 (Mesoscale Discovery).
In Table 3, the values represent + for >1000 nM, ++ 200-1,000 nM, +++ for <200 nM and − for not determined.

[2] = IFNγ secretion, read-out: IFNγ (EC50)
[3] = IL-2 secretion, read-out: IL-2 (EC50)

recombinant human HPK1, sequence (Q92918 whole entry): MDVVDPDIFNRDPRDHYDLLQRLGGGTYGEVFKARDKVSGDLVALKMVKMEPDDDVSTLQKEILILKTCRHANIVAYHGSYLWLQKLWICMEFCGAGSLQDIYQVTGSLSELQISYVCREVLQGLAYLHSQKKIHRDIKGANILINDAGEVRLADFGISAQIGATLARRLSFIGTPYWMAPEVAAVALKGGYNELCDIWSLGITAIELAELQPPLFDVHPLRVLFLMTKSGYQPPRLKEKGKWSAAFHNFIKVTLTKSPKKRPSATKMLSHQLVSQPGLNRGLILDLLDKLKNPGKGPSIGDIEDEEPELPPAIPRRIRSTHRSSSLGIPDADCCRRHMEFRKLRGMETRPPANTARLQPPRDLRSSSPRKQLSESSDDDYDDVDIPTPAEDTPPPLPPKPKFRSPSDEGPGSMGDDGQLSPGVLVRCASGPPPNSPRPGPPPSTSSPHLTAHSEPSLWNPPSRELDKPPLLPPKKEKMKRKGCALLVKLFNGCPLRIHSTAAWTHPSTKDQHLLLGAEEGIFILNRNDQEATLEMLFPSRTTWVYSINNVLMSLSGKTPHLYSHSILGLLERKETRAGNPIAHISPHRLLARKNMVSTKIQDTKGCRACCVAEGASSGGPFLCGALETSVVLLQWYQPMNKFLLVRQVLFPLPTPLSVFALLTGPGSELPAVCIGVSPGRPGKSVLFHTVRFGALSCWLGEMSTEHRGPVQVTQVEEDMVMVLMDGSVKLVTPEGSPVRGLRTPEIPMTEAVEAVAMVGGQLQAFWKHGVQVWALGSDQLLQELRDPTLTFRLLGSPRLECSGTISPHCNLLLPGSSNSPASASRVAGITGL

Compound | IC50 (recombinant human HPK1) | EC50 [1, 2] | EC50 [1, 3]
CSc1c(F)cc2[nH]ncc2c1-c1ccc2nc(NC(=O)[C@@H]3C[C@@H]3F)sc2n1 [Example 156, (1S,2S)-2-fluoro-N-(5-(6-fluoro-5-(methylthio)-1H-indazol-4-yl)thiazolo[5,4-b]pyridin-2-yl)cyclopropane-1-carboxamide] | < 100 nM | 200 to 1000 nM | 200 to 1000 nM
CCc1c(F)c(N(C)C)c2[nH]ncc2c1-c1ccc2nc(NC(=O)[C@@H]3C[C@@H]3F)sc2n1 [Example 161, (1S,2S)-N-(5-(7-(dimethylamino)-5-ethyl-6-fluoro-1H-indazol-4-yl)thiazolo[5,4-b]pyridin-2-yl)-2-fluorocyclopropane-1-carboxamide] | < 100 nM | 200 to 1000 nM | 
CCc1c(F)c(SC)c2[nH]ncc2c1-c1ccc2nc(NC(=O)[C@@H]3C[C@@H]3F)sc2n1 [Example 162, (1S,2S)-N-(5-(5-ethyl-6-fluoro-7-(methylthio)-1H-indazol-4-yl)thiazolo[5,4-b]pyridin-2-yl)-2-fluorocyclopropane-1-carboxamide] | < 100 nM | 200 to 1000 nM | 
CCc1c(F)c(SCC(=O)NC)c2[nH]ncc2c1-c1ccc2nc(NC(=O)[C@@H]3C[C@@H]3F)sc2n1 [Example 167, (1S,2S)-N-(5-(5-ethyl-6-fluoro-7-((2-(methylamino)-2-oxoethyl)thio)-1H-indazol-4-yl)thiazolo[5,4-b]pyridin-2-yl)-2-fluorocyclopropane-1-carboxamide] | < 100 nM | 200 to 1000 nM | > 1000 nM
Cc1c(F)c(N(C)C)c2[nH]ncc2c1-c1ccc2nc(NC(=O)[C@@H]3C[C@@H]3F)sc2n1 [Example 169, (1S,2S)-N-(5-(7-(dimethylamino)-6-fluoro-5-methyl-1H-indazol-4-yl)thiazolo[5,4-b]pyridin-2-yl)-2-fluorocyclopropane-1-carboxamide] | < 100 nM | 200 to 1000 nM | > 1000 nM
CSc1c(F)c(SC)c2[nH]ncc2c1-c1ccc2nc(NC(=O)[C@@H]3C[C@@H]3F)sc2n1 [Example 170, (1S,2S)-2-fluoro-N-(5-(6-fluoro-5,7-bis(methylthio)-1H-indazol-4-yl)thiazolo[5,4-b]pyridin-2-yl)cyclopropane-1-carboxamide] | < 100 nM | 200 to 1000 nM | > 1000 nM
CN(C)c1c(F)c(Cl)c(-c2ccc3nc(NC(=O)[C@@H]4C[C@@H]4F)sc3n2)c2cn[nH]c12 [Example 172, (1S,2S)-N-(5-(5-chloro-7-(dimethylamino)-6-fluoro-1H-indazol-4-yl)thiazolo[5,4-b]pyridin-2-yl)-2-fluorocyclopropane-1-carboxamide] | < 100 nM | 200 to 1000 nM | 
CSc1c(F)c(Cl)c(-c2ccc3nc(NC(=O)[C@@H]4C[C@@H]4F)sc3n2)c2cn[nH]c12 [Example 174, (1S,2S)-N-(5-(5-chloro-6-fluoro-7-(methylthio)-1H-indazol-4-yl)thiazolo[5,4-b]pyridin-2-yl)-2-fluorocyclopropane-1-carboxamide] | < 100 nM | 200 to 1000 nM | 
CCOc1c(F)c(C)c(-c2ccc3nc(NC(=O)[C@@H]4C[C@@H]4F)sc3n2)c2cn[nH]c12 [Example 175, (1S,2S)-N-(5-(7-ethoxy-6-fluoro-5-methyl-1H-indazol-4-yl)thiazolo[5,4-b]pyridin-2-yl)-2-fluorocyclopropane-1-carboxamide] | < 100 nM | < 200 nM | 
CCOc1c(F)c(SC)c(-c2ccc3nc(NC(=O)[C@@H]4C[C@@H]4F)sc3n2)c2cn[nH]c12 [Example 184, (1S,2S)-N-(5-(7-ethoxy-6-fluoro-5-(methylthio)-1H-indazol-4-yl)thiazolo[5,4-b]pyridin-2-yl)-2-fluorocyclopropane-1-carboxamide] | < 100 nM | < 200 nM | 
CN(C)C(=O)c1c(F)c(Cl)c(-c2ccc3nc(NC(=O)[C@@H]4C[C@@H]4F)sc3n2)c2cn[nH]c12 [Example 193, 5-chloro-6-fluoro-4-(2-((1S,2S)-2-fluorocyclopropane-1-carboxamido)thiazolo[5,4-b]pyridin-5-yl)-N,N-dimethyl-1H-indazole-7-carboxamide] | < 100 nM | 200 to 1000 nM | > 1000 nM
CSc1c(F)c(N(C)C)c2[nH]ncc2c1-c1ccc2nc(NC(=O)[C@@H]3C[C@@H]3F)sc2n1 [Example 194, (1S,2S)-N-(5-(7-(dimethylamino)-6-fluoro-5-(methylthio)-1H-indazol-4-yl)thiazolo[5,4-b]pyridin-2-yl)-2-fluorocyclopropane-1-carboxamide] | < 100 nM | 200 to 1000 nM | 
Cc1c(F)c(C)c2[nH]ncc2c1-c1ccc2nc(NC(=O)[C@@H]3C[C@@H]3F)sc2n1 [Example 199, (1S,2S)-2-fluoro-N-(5-(6-fluoro-5,7-dimethyl-1H-indazol-4-yl)thiazolo[5,4-b]pyridin-2-yl)cyclopropane-1-carboxamide] | < 100 nM | 200 to 1000 nM | 
CN(C)c1c(F)c(Cl)c(-c2ccc3nc(NC(=O)[C@@H]4C[C@@H]4F)cn3c2)c2cn[nH]c12 [Example 258, (1S,2S)—N-(6-(5-chloro-7-(dimethylamino)-6-fluoro-1H-indazol-4-yl)imidazo[1,2-a]pyridin-2-yl)-2-fluorocyclopropane-1-carboxamide] | < 100 nM | < 200 nM | 200 to 1000 nM
CCc1c(F)c(N(C)C)c2[nH]ncc2c1-c1ccc2nc(NC(=O)[C@@H]3C[C@@H]3F)cn2c1 [Example 291, (1S,2S)-N-(6-(7-(dimethylamino)-5-ethyl-6-fluoro-1H-indazol-4-yl)imidazo[1,2-a]pyridin-2-yl)-2-fluorocyclopropane-1-carboxamide] | < 100 nM | < 200 nM | 200 to 1000 nM
CCc1c(F)c(SC)c2[nH]ncc2c1-c1ccc2nc(NC(=O)[C@@H]3C[C@@H]3F)cn2c1 [Example 293, (1S,2S)-N-(6-(5-ethyl-6-fluoro-7-(methylthio)-1H-indazol-4-yl)imidazo[1,2-a]pyridin-2-yl)-2-fluorocyclopropane-1-carboxamide] | < 100 nM | < 200 nM | 
CSc1c(F)cc2[nH]ncc2c1-c1ccc2nc(NC(=O)[C@@H]3C[C@@H]3F)cn2c1 [Example 296, (1S,2S)-2-fluoro-N-(6-(6-fluoro-5-(methylthio)-1H-indazol-4-yl)imidazo[1,2-a]pyridin-2-yl)cyclopropane-1-carboxamide] | < 100 nM | < 200 nM | 200 to 1000 nM
CSc1c(F)c(SC)c2[nH]ncc2c1-c1ccc2nc(NC(=O)[C@@H]3C[C@@H]3F)cn2c1 [Example 297, (1S,2S)-2-fluoro-N-(6-(6-fluoro-5,7-bis(methylthio)-1H-indazol-4-yl)imidazo[1,2-a]pyridin-2-yl)cyclopropane-1-carboxamide] | < 100 nM | < 200 nM | < 200 nM
CC(=O)N(C)c1c(F)c(Cl)c(-c2ccc3nc(NC(=O)[C@@H]4C[C@@H]4F)cn3c2)c2cn[nH]c12 [Example 316, (1S,2S)-N-(6-(5-chloro-6-fluoro-7-(N-methylacetamido)-1H-indazol-4-yl)imidazo[1,2-a]pyridin-2-yl)-2-fluorocyclopropane-1-carboxamide] | < 100 nM | 200 to 1000 nM | > 1000 nM
